Measured values from the NIST ThermoML archive (doi:10.1021/je049656o).

Assay: mn = molality of the nth substance listed, in mol/kg
Conditions: 298.15 K, 101.33 kPa, Liquid

O=c1cc(Cl)[nH]c(=O)[nH]1 [6-chlorouracil] + CO
Conditions	molar enthalpy of solution [kcal/mol]
m1 = 0.000624	4.02
m1 = 0.000862	4.06
m1 = 0.000948	4.13
m1 = 0.001116	4.04
m1 = 0.001609	4.28
m1 = 0.00168	4.15

O=c1cc[nH]c(=O)[nH]1 [2,4(1H,3H)-pyrimidinedione] + CO
Conditions	molar enthalpy of solution [kcal/mol]
m1 = 0.000848	3.57
m1 = 0.000858	3.6
m1 = 0.00105	3.34
m1 = 0.00109	3.34
m1 = 0.001223	3.27
m1 = 0.001317	3.27

O=c1[nH]cc(F)c(=O)[nH]1 [5-fluoro-2,4(1H,3H)-pyrimidinedione] + CO
Conditions	molar enthalpy of solution [kcal/mol]
m1 = 0.000844	3.46
m1 = 0.000963	3.44
m1 = 0.001039	3.41
m1 = 0.00126	3.43
m1 = 0.001578	3.42
m1 = 0.001848	3.47

O=c1[nH]cc(I)c(=O)[nH]1 [5-iodouracil] + CO
Conditions	molar enthalpy of solution [kcal/mol]
m1 = 0.000481	4.37
m1 = 0.000487	4.35
m1 = 0.000551	4.22
m1 = 0.000618	4.37
m1 = 0.000626	4.31
m1 = 0.000769	4.2

O=c1[nH]cc(C(F)(F)F)c(=O)[nH]1 [5-(trifluoromethyl)uracil] + CO
Conditions	molar enthalpy of solution [kcal/mol]
m1 = 0.000648	3.83
m1 = 0.000687	3.95
m1 = 0.000724	3.75
m1 = 0.00076	3.6
m1 = 0.000813	3.59
m1 = 0.000845	3.78

Oc1ncc(Cl)c(O)n1 [5-chloro-2,4-pyrimidinedione] + CO
Conditions	molar enthalpy of solution [kcal/mol]
m1 = 0.000652	2.12
m1 = 0.000899	2.3
m1 = 0.000901	2.29
m1 = 0.000954	2.23
m1 = 0.000982	2.11
m1 = 0.001245	2.12

O=c1[nH]cc(Br)c(=O)[nH]1 [5-bromouracil] + CO
Conditions	molar enthalpy of solution [kcal/mol]
m1 = 0.000472	3.53
m1 = 0.000548	3.35
m1 = 0.000563	3.73
m1 = 0.00102	3.59
m1 = 0.001023	3.61
m1 = 0.00125	3.48
